# Test results taken from ChEMBL document CHEMBL5316344, “Homologation of the Alkyl Side Chain of Antimitotic Phenyl 4-(2-Oxo-3-alkylimidazolidin-1-yl)benzenesulfonate Prodrugs Selectively Targeting CYP1A1-Expressing Breast Cancers Improves Their Stability in Rodent Liver Microsomes” (J Med Chem, 2023).
# pIC50, pKi: −log10 of the molar value. Activity calls are given as the source filed them. The calls are words filed in the database; no cut-off is given here.
# Key:
# [1] = Selectivity ratio, ratio of IC50 for antiproliferative activity against human HT-1080 cells transfected with empty vector to IC50 for antiproliferative activity against human HT-1080 cells expressing CYP1A1; assay type: functional
# HT-1080 [2] = assay: Antiproliferative activity against human HT-1080 cells transfected with empty vector assessed as cell growth inhibition incubated for 48 hrs by sulforhodamine B assay; assay type: functional, cell-based; conditions: HT-1080, 48 h
# HT-1080 [3] = assay: Antiproliferative activity against human HT-1080 cells expressing CYP1A1 assessed as cell growth inhibition incubated for 48 hrs by sulforhodamine B assay; assay type: functional, cell-based; conditions: HT-1080, 48 h
# [4] = Selectivity ratio, ratio of IC50 for antiproliferative activity against human M21 cells to IC50 for antiproliferative activity against human MCF7 cells expressing CYP1A1; assay type: functional
# HT-1080 [5] = assay: Antiproliferative activity against human HT-1080 cells assessed as cell growth inhibition incubated for 48 hrs by sulforhodamine B assay; assay type: functional, cell-based; conditions: HT-1080, 48 h
# [6] = Selectivity ratio, ratio of IC50 for antiproliferative activity against human HT-29 cells to IC50 for antiproliferative activity against human MCF7 cells expressing CYP1A1; assay type: functional
# Cytochrome P450 1A1 = biological target: T1, Cytochrome P450 1A1 (Homo sapiens, UniProt P04798); assay: Binding affinity to human CYP1A1 assessed as inhibition of conversion of 7-ethoicyresorufin into fluorescent resorufin by measuring inhibition constant preincubated for 5 mins followed by […] addition measured every minute for 15 mins by EROD assay; assay type: ADME
# T1 sequence (P04798 whole entry): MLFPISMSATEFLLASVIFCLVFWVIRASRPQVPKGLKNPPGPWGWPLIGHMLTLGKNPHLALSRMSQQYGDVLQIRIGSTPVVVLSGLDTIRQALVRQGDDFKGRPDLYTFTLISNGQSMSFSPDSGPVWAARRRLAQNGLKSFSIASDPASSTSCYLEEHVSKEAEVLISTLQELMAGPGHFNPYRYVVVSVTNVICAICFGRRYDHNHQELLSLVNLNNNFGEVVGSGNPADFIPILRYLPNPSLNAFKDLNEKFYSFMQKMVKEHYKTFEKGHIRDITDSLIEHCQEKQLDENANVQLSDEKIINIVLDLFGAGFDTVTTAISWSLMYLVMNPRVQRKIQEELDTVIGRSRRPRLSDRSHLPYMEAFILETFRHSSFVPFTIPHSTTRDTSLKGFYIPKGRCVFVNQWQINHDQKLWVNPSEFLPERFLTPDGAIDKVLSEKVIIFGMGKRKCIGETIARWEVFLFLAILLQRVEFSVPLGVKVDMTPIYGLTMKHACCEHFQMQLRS
# [7] = Selectivity ratio, ratio of IC50 for antiproliferative activity against human HT-1080 cells to IC50 for antiproliferative activity against human HT-1080 cells expressing CYP1A1; assay type: functional
# [8] = Stability in rat liver microsomes assessed as intrinsic clearance incubated for 60 mins by HPLC analysis; assay type: ADME, Microsome; conditions: read-out: CLH
# MCF7 [9] = assay: Induction of cell cycle arrest in human MCF7 cells expressing CYP1A1 assessed as accumulation of cells at G2/M phase at 145 nM incubated for 48 hrs by DAPI staining based flow cytometric analysis (reference value: 16+/-2 %); assay type: functional
# [10] = Stability in rat liver microsomes assessed as half life incubated for 60 mins by HPLC analysis; assay type: ADME, Microsome
# [11] = Stability in mouse liver microsomes assessed as intrinsic clearance incubated for 60 mins by HPLC analysis; assay type: ADME, Microsome; conditions: read-out: CLH
# MCF7 [12] = assay: Induction of cell cycle arrest in human MCF7 cells expressing CYP1A1 assessed as accumulation of cells at S phase at 145 nM incubated for 48 hrs by DAPI staining based flow cytometric analysis (reference value: 11+/-1 %); assay type: functional
# M21 = assay: Antiproliferative activity against human M21 cells assessed as cell growth inhibition incubated for 48 hrs by sulforhodamine B assay; assay type: functional, cell-based; conditions: M21, 48 h
# Tubulin (Homo sapiens) [13] = biological target: T2, Tubulin (Homo sapiens) (UniProt P68371+Q9H4B7+P0DPH7+P68366+Q13509+Q71U36+P04350+Q3ZCM7+P07437+P68363+Q9BQE3+Q6PEY2+Q13885+Q9BVA1+Q9BUF5); assay: Disruption of microtubules in human MCF7 cells expressing CYP1A1 assessed as cytoskeleton disruption at 65 nM measured after 48 hrs by DAPI staining based fluorescence microscopic analysis; assay type: cell-based
# HT-29 = assay: Antiproliferative activity against human HT-29 cells assessed as cell growth inhibition incubated for 48 hrs by sulforhodamine B assay; assay type: functional, cell-based; conditions: HT-29, 48 h
# [14] = Stability in human liver microsomes assessed as intrinsic clearance incubated for 60 mins by HPLC analysis; assay type: ADME, Microsome; conditions: read-out: CLH
# MCF7 [15] = assay: Antiproliferative activity against human MCF7 cells expressing CYP1A1 assessed as cell growth inhibition incubated for 48 hrs by sulforhodamine B assay; assay type: functional, cell-based; conditions: MCF7, 48 h
# [16] = Stability in human liver microsomes assessed as half life incubated for 60 mins by HPLC analysis; assay type: ADME, Microsome
# [17] = Stability in mouse liver microsomes assessed as half life incubated for 60 mins by HPLC analysis; assay type: ADME, Microsome
# MCF7 [18] = assay: Induction of cell cycle arrest in human MCF7 cells expressing CYP1A1 assessed as accumulation of cells at G0/G1 phase at 145 nM incubated for 48 hrs by DAPI staining based flow cytometric analysis (reference value: 74+/-2 %); assay type: functional
# MCF7 [19] = assay: Induction of cell cycle arrest in human MCF7 cells expressing CYP1A1 assessed as accumulation of cells at G0/G1 phase at 690 nM incubated for 48 hrs by DAPI staining based flow cytometric analysis (reference value: 74+/-2 %); assay type: functional
# MCF7 [20] = assay: Induction of cell cycle arrest in human MCF7 cells expressing CYP1A1 assessed as accumulation of cells at S phase at 690 nM incubated for 48 hrs by DAPI staining based flow cytometric analysis (reference value: 11+/-1 %); assay type: functional
# Tubulin (Homo sapiens) [21] = biological target: T2, Tubulin (Homo sapiens); assay: Disruption of microtubules in human MCF7 cells expressing CYP1A1 assessed as cytoskeleton disruption at 970 nM measured after 48 hrs by DAPI staining based fluorescence microscopic analysis; assay type: cell-based
# MCF7 [22] = assay: Induction of cell cycle arrest in human MCF7 cells expressing CYP1A1 assessed as accumulation of cells at G2/M phase at 690 nM incubated for 48 hrs by DAPI staining based flow cytometric analysis (reference value: 16+/-2 %); assay type: functional
# [23] = Toxicity in chick embryo xenografted with human […] cells assessed as mortality at 1 ug, iv incubated for 17 days; assay type: organism-based, Gallus gallus; conditions: chicken, in vivo, 408 h, dose 1 µg, time 17 day
# MCF7 [24] = assay: Induction of cell cycle arrest in human MCF7 cells expressing CYP1A1 assessed as accumulation of cells at G2/M phase at 30 nM incubated for 48 hrs by DAPI staining based flow cytometric analysis (reference value: 16+/-2 %); assay type: functional
# [25] = Toxicity in chick embryo xenografted with human […] cells transfected with empty vector assessed as mortality at 1 ug, iv incubated for 17 days; assay type: organism-based, Gallus gallus; conditions: chicken, in vivo, 408 h, dose 1 µg, time 17 day
# MCF7 [26] = assay: Induction of cell cycle arrest in human MCF7 cells expressing CYP1A1 assessed as accumulation of cells at G0/G1 phase at 30 nM incubated for 48 hrs by DAPI staining based flow cytometric analysis (reference value: 74+/-2 %); assay type: functional
# HT-1080 [27] = assay: Antitumor activity against human HT-1080 cells expressing CYP1A1 xenografted in chick embryo assessed as reduction in tumor wet weight at 1 ug, iv incubated for 17 days by CAM assay; assay type: functional; parameters: scale not given: the % may be the effect or the level left; conditions: dose 1 µg, time 17 day
# MCF7 [28] = assay: Induction of cell cycle arrest in human MCF7 cells expressing CYP1A1 assessed as accumulation of cells at S phase at 30 nM incubated for 48 hrs by DAPI staining based flow cytometric analysis (reference value: 11+/-1 %); assay type: functional
# HT-1080 [29] = assay: Antitumor activity against human HT-1080 cells transfected with empty vector xenografted in chick embryo assessed as reduction in tumor wet weight at 1 ug, iv incubated for 17 days by CAM assay; assay type: functional; parameters: scale not given: the % may be the effect or the level left; conditions: dose 1 µg, time 17 day
# HT-1080 [30] = assay: Antitumor activity against human HT-1080 cells xenografted in chick embryo assessed as reduction in tumor wet weight at 1 ug, iv incubated for 17 days by CAM assay; assay type: functional; parameters: scale not given: the % may be the effect or the level left; conditions: dose 1 µg, time 17 day
# [31] = Toxicity in chick embryo xenografted with human […] cells expressing CYP1A1 assessed as mortality at 1 ug, iv incubated for 17 days; assay type: organism-based, Gallus gallus; conditions: chicken, in vivo, 408 h, dose 1 µg, time 17 day
# Tubulin (Homo sapiens) [32] = biological target: T2, Tubulin (Homo sapiens); assay: Disruption of microtubules in human MCF7 cells expressing CYP1A1 assessed as cytoskeleton disruption at 1305 nM measured after 48 hrs by DAPI staining based fluorescence microscopic analysis; assay type: cell-based
# MCF7 [33] = assay: Induction of cell cycle arrest in human MCF7 cells expressing CYP1A1 assessed as accumulation of cells at G2/M phase at 1100 nM incubated for 48 hrs by DAPI staining based flow cytometric analysis (reference value: 16+/-2 %); assay type: functional
# MCF7 [34] = assay: Induction of cell cycle arrest in human MCF7 cells expressing CYP1A1 assessed as accumulation of cells at S phase at 1100 nM incubated for 48 hrs by DAPI staining based flow cytometric analysis (reference value: 11+/-1 %); assay type: functional
# MCF7 [35] = assay: Induction of cell cycle arrest in human MCF7 cells expressing CYP1A1 assessed as accumulation of cells at G0/G1 phase at 1100 nM incubated for 48 hrs by DAPI staining based flow cytometric analysis (reference value: 74+/-2 %); assay type: functional
pIC50 (HT-1080 [2]),pIC50 (HT-1080 [3]),pIC50 (HT-1080 [5]),pKi (Cytochrome P450 1A1),microsomal CLint [8],half-life [10],microsomal CLint [11],pIC50 (HT-29),microsomal CLint [14],pIC50 (MCF7 [15]),half-life [16],half-life [17],SMILES,Ratio IC50 [1],Ratio IC50 [4],Ratio IC50 [6],Ratio IC50 [7],pIC50 (M21),further results
< 5.30,7.52,5.34,5.92,9 µL/min/mg,2.67 h,12.5 µL/min/mg,< 5.30,12 µL/min/mg,7.30,2 h,1.85 h,CCCCCN1CCN(c2ccc(S(=O)(=O)Oc3cc(Cl)cc(Cl)c3)cc2)C1=O,>167,>100,>100,152,< 5.30,Activity (MCF7 [9]): 34%; Activity (MCF7 [12]): 17%; Activity (Tubulin (Homo sapiens) [13]): Active; Activity (MCF7 [18]): 49%
< 4.90,7.52,5.39,6.72,24 µL/min/mg,1.03 h,15 µL/min/mg,< 4.90,19 µL/min/mg,6.85,1.28 h,1.55 h,CCCCCN1CCN(c2ccc(S(=O)(=O)Oc3cccc(I)c3)cc2)C1=O,>417,>90,>90,137,< 4.90,Activity (MCF7 [19]): 37%; Activity (MCF7 [20]): 18%; Activity (Tubulin (Homo sapiens) [21]): Active; Activity (MCF7 [22]): 45%
< 4.90,7.05,5.16,6.22,12 µL/min/mg,1.83 h,11 µL/min/mg,< 4.90,5 µL/min/mg,6.40,4.83 h,2.17 h,CCCCCN1CCN(c2ccc(S(=O)(=O)Oc3cccc(Cl)c3)cc2)C1=O,>139,>31,>31,76,< 4.90,Activity (Tubulin (Homo sapiens) [32]): Active; Activity (MCF7 [33]): 42%; Activity (MCF7 [34]): 13%; Activity (MCF7 [35]): 45%

SMILES,pIC50 (HT-1080 [2]),pIC50 (HT-1080 [3]),pIC50 (HT-1080 [5]),pKi (Cytochrome P450 1A1),microsomal CLint [8],half-life [10],microsomal CLint [11],pIC50 (HT-29),microsomal CLint [14],pIC50 (MCF7 [15]),half-life [16],half-life [17],Ratio IC50 [1],Ratio IC50 [4],Ratio IC50 [6],Ratio IC50 [7],pIC50 (M21),further results
CCCCN1CCN(c2ccc(S(=O)(=O)Oc3cc(OC)c(OC)c(OC)c3)cc2)C1=O,6.09,8.22,5.92,6.85,77 µL/min/mg,0.302 h,77 µL/min/mg,< 5.30,15 µL/min/mg,7.54,1.53 h,0.3 h,137,83,>172,200,5.62,Activity [23]: Non-Toxic; Activity (MCF7 [24]): 51%; Activity [25]: Non-Toxic; Activity (MCF7 [26]): 38%; Activity (HT-1080 [27]): 51%; Activity (MCF7 [28]): 11%; Activity (HT-1080 [29]): 108%; Activity (HT-1080 [30]): 85%; Activity [31]: Non-Toxic
